{"source": "patent US7659242B2", "about": "“Composition comprising protein material and compounds comprising non-oxidizable fatty acid entities” (Thia Medica AS, priority 2004, dated 2010)", "key": {"[1]": {"experiment": "degradation time in vivo of ω-oxidation blocked analogue", "description": "ω-oxidation is believed to be the main pathway for degradation of the fatty acid entities as described with a block in the X position. Experiments were thus performed where R′ was changed to block ω-oxidation, by introducing a triple bond at the methyl end of the fatty acid analogue. […] This is important for the use of the fatty acid entities in pharmaceutical preparation, as it may potentiate the effects of the β-oxidizable fatty acid entities by further slowing down their breakdown."}, "[2]": {"test_system": "mitochondrial β-oxidation in the liver", "experiment": "activity of mitochondrial β-oxidation in the liver of fatty acid analogues", "assay_type": "biochemical", "description": "Although all fatty acid anagoges with an odd positioning of the β-oxidation blocker X away from the carboxylic end block β-oxidation, the extent of their biological effect may be variable. This is due to the difference in biological degradation time of the various compounds. The inventors have done experiments to show the effect of moving X further from the carboxylic fatty acid end. In these experiments the activity (in nmol/min/mg/protein) of mitochondrial β-oxidation in the liver of fatty acid analogues was measured with sulphur in the 3, 5 and 7 positions relative to the carboxyl end. The activities were 0.81 for sulphur in the 3rd position, 0.61 for sulphur in the 5th position, 0.58 for sulphur in the 7th position, and 0.47 for palmitic acid, the non β-oxidation blocking control. […] However, as the decline is great for going from the 3rd to 5th position, but small going from the 5th to 7th position, it is reasonable to assume that this decline will continue to be less as one moves out the chain and thus that it will be very far out indeed before no effect (compared to the control) is seen at all."}}, "data": [{"smiles": "CC#CCCCCCCCCCCCSCC", "note": "[3-thia-15-heptadecyn]", "values": [{"measurement": "degradation time in vivo", "setting": "[1]", "value": "substantially increased degradation time in vivo"}]}, {"smiles": "CCCCCCCCCCCCCCCC(=O)O", "note": "[palmitic acid]", "values": [{"measurement": "activity of mitochondrial β-oxidation in the liver", "setting": "[2]", "value": 0.47, "unit": "nmol/min/mg/protein"}]}]}
